What was measured:
[1] = system: Spontaneously Hypertensive Rats; test: Antihypertensive action, tail-cuff systolic pressure in unanaesthetized SHR after i.p. administration; assay type: in vivo, Spontaneously Hypertensive Rats (female); conditions: 3 mg/kg intraperitoneally
Protocol: Female Spontaneously Hypertensive Rats(hereinafter referred to as SHR) with 160 mmHg of systolic pressure were employed without anaesthetization. The systolic pressure was, after SHRs were kept warm at 50° C. for 2 to 3 minutes, bloodlessly measured by the tail-cuff method [Japan J. Pharmacol., 28, 617 (1978)] using a Physiograph and an Electrosphygmomanometer (DMP-4B, PE-300, Narco Biosystems, Inc., Houston). Each compound was intraperitoneally administered to SHR at a dose of 3 mg per kilogramm. Antihypertensive action is shown in a maximal decrease of blood pressure, i.e. a maximum difference between systolic pressures after and before the administration of the test compound; along with which the duration period is also shown.

[2] = system: heart (coronary perfusate flow); test: Coronary vasodilating action, perfusion flow change in isolated Langendorff-perfused heart; parameters: species or system Guinea pigs
Protocol: (§1) Guinea pigs with 400-800g of body weight were hit strongly on their heads and the cartoid artery of each Guinea pigs was cut down in order to make them bloodless. The heart was isolated and perfused with at a constant pressure (50 cm H2 O) by the Langendorff method [Basic Pharmacology & Therapeutics, 9(4), 181 (1981)]. Krebs-Ringer bicarbonate solution (27° C.) containing 0.5% defibrinated blood was employed as a perfusate, into which a mixed gas of 95% oxygen and 5% carbon dioxide was continuously introduced. The flowing perfusate was led into a drop counter, and the changes of the flow i.e. increase and decrease are regarded as the respective indications for coronary vasodilation and vasoconstriction. The isomeric contraction of apex and the number of drops of the coronary perfusate were recorded on a Recticorder (RJG 3006, Nihon Koden) by way of an F-D Pick-up (SB-IT, Nihon Koden). […] Coronary vasodilating action is shown in changes of the quantiy of the perfusate, and systole inhibitory action is shown in those of inotropic tension.

[3] = system: heart (contraction of apex); test: Systole inhibitory action / negative inotropic action, contractile tension of isolated Langendorff-perfused heart; parameters: species or system Guinea pigs
Protocol: as §1

[4] = in vivo; conditions: mouse, female DS mice, intravenous
Protocol: In female DS mice (body weight: about 20g), LD50 value after the intravenous administration of the compounds was calculated by the Brownlee's up and down method [J. Am. Sat. As., 48, 262 (1953)].

SMILES: COCCOC(=O)C1=C(C)Nc2c(c(C3CCCC3)nn2C)C1c1ccccc1[N+](=O)[O-] (centres unmarked) [(B-2), 2-Methoxyethyl 3-cyclopentyl-1,6-dimethyl-4-(2-nitrophenyl)-4,7-dihydropyrazolo[3,4-b]pyridine-5-carboxylate]
- Duration of Effect ([1]; Table 1 (Part 2)): 6 h
- Maximum decrease in systolic pressure ([1]; Table 1 (Part 2)): 45 mmHg
- Perfusion Flow Change ([2]; 0.1 μg, Table 1 (Part 2)): +28%
- Change of Contractile Tension ([3]; 0.1 μg, Table 1 (Part 2)): 0%

SMILES: CCOC(=O)C1=C(C)Nc2c(c(C3CCCC3)nn2C)C1c1cccc([N+](=O)[O-])c1.Cl (centres unmarked) [(C-1), Ethyl 3-cyclopentyl-1,6-dimethyl-4-(3-nitrophenyl)-4,7-dihydropyrazolo[3,4-b]pyridine-5-carboxylate hydrochloride]
- Duration of Effect ([1]; Table 1 (Part 1)): 14 h
- Maximum Hypotension ([1]; Table 1 (Part 1)): 42 mmHg
- Perfusion Flow Change ([2]; 0.1 μg, Table 2 (Part 1)): +40%
- Perfusion Flow Change ([2]; 1 μg, Table 2 (Part 1)): +79%
- Perfusion Flow Change ([2]; 10 μg, Table 2 (Part 1)): +93%
- Change of Contractile Tension ([3]; 0.1 μg, Table 3 (Part 1)): 0%
- Change of Contractile Tension ([3]; 1 μg, Table 3 (Part 1)): 0%
- Change of Contractile Tension ([3]; 10 μg, Table 3 (Part 1)): 0%
- LD50 [4]: 50.6 mg/kg

SMILES: CC1=C(C(=O)OCCc2ccccc2)C(c2ccccc2[N+](=O)[O-])c2c(C3CCCC3)nn(C)c2N1 (centres unmarked) [(K), Phenethyl 3-cyclopentyl-1,6-dimethyl-4-(2-nitrophenyl)-4,7-dihydropyrazolo[3,4-b]pyridine-5-carboxylate]
- Duration of Effect ([1]; Table 1 (Part 2)): 6 h
- Maximum decrease in systolic pressure ([1]; Table 1 (Part 2)): 75 mmHg
- Perfusion Flow Change ([2]; 0.1 μg, Table 1 (Part 2)): +63%
- Change of Contractile Tension ([3]; 0.1 μg, Table 1 (Part 2)): 0%

SMILES: CC1=C(C(=O)OCCOC2CCCC2)C(c2ccccc2[N+](=O)[O-])c2c(C3CCCC3)nn(C)c2N1 (centres unmarked) [(G), 2-Cyclopentyloxyethyl 3-cyclopentyl-1,6-dimethyl-4-(2-nitrophenyl)-4,7-dihydropyrazolo[3,4-b]pyridine-5-carboxylate]
- Duration of Effect ([1]; Table 1 (Part 2)): 6 h
- Maximum decrease in systolic pressure ([1]; Table 1 (Part 2)): 53 mmHg
- Perfusion Flow Change ([2]; 0.1 μg, Table 1 (Part 2)): +67%
- Change of Contractile Tension ([3]; 0.1 μg, Table 1 (Part 2)): 0%

SMILES: COC(=O)C1=C(C)Nc2c(c(C3CCCC3)nn2C)C1c1cccc([N+](=O)[O-])c1 (centres unmarked) [(B-1), Methyl 3-cyclopentyl-1,6-dimethyl-4-(3-nitrophenyl)-4,7-dihydropyrazolo[3,4-b]pyridine-5-carboxylate]
- Duration of Effect ([1]; Table 1 (Part 1)): 16 h
- Maximum Hypotension ([1]; Table 1 (Part 1)): 66 mmHg
- Perfusion Flow Change ([2]; 0.1 μg, Table 2 (Part 1)): +26%
- Perfusion Flow Change ([2]; 1 μg, Table 2 (Part 1)): +73%
- Perfusion Flow Change ([2]; 10 μg, Table 2 (Part 1)): +180%
- Change of Contractile Tension ([3]; 0.1 μg, Table 3 (Part 1)): 0%
- Change of Contractile Tension ([3]; 1 μg, Table 3 (Part 1)): 0%
- Change of Contractile Tension ([3]; 10 μg, Table 3 (Part 1)): 0%
- LD50 [4]: 31.5 mg/kg

SMILES: COC(=O)C1=C(C)NC(C)=C(C(=O)OC)C1c1ccccc1[N+](=O)[O-] [(A), Nifedipine, reference compound]
- Duration of Effect ([1]; Table 1 (Part 1)): 6 h
- Maximum Hypotension ([1]; Table 1 (Part 1)): 45 mmHg
- Duration of Effect ([1]; Table 1 (Part 2)): 6 h
- Maximum decrease in systolic pressure ([1]; Table 1 (Part 2)): 45 mmHg
- Perfusion Flow Change ([2]; 0.1 μg, Table 1 (Part 2)): +38%
- Perfusion Flow Change ([2]; 0.1 μg, Table 2 (Part 1)): +38%
- Perfusion Flow Change ([2]; 1 μg, Table 2 (Part 1)): +100%
- Change of Contractile Tension ([3]; 0.1 μg, Table 1 (Part 2)): -15%
- Change of Contractile Tension ([3]; 0.1 μg, Table 3 (Part 1)): -15%
- Change of Contractile Tension ([3]; 1 μg, Table 3 (Part 1)): -57%

SMILES: CC1=C(C(=O)OCC2CCCO2)C(c2ccccc2[N+](=O)[O-])c2c(C3CCCC3)nn(C)c2N1 (centres unmarked) [(H), 2-Tetrahydrofurylmethyl 3-cyclopentyl-1,6-dimethyl-4-(2-nitrophenyl)-4,7-dihydropyrazolo[3,4-b]pyridine-5-carboxylate]
- Maximum decrease in systolic pressure ([1]; Table 1 (Part 2)): 0 mmHg
- Perfusion Flow Change ([2]; 0.1 μg, Table 1 (Part 2)): +34%
- Change of Contractile Tension ([3]; 0.1 μg, Table 1 (Part 2)): 0%

SMILES: CC1=C(C(=O)OCCCOC(C)C)C(c2ccccc2[N+](=O)[O-])c2c(C3CCCC3)nn(C)c2N1 (centres unmarked) [(F), 3-Isopropoxypropyl 3-cyclopentyl-1,6-dimethyl-4-(2-nitrophenyl)-4,7-dihydropyrazolo[3,4-b]pyridine-5-carboxylate]
- Duration of Effect ([1]; Table 1 (Part 2)): 6 h
- Maximum decrease in systolic pressure ([1]; Table 1 (Part 2)): 53 mmHg
- Perfusion Flow Change ([2]; 0.1 μg, Table 1 (Part 2)): +65%
- Change of Contractile Tension ([3]; 0.1 μg, Table 1 (Part 2)): 0%

SMILES: CSCCOC(=O)C1=C(C)Nc2c(c(C3CCCC3)nn2C)C1c1ccccc1[N+](=O)[O-] (centres unmarked) [(J), 2-Methylthioethyl 3-cyclopentyl-1,6-dimethyl-4-(2-nitrophenyl)-4,7-dihydropyrazolo[3,4-b]pyridine-5-carboxylate]
- Duration of Effect ([1]; Table 1 (Part 2)): 6 h
- Maximum decrease in systolic pressure ([1]; Table 1 (Part 2)): 20 mmHg
- Perfusion Flow Change ([2]; 0.1 μg, Table 1 (Part 2)): +68%
- Change of Contractile Tension ([3]; 0.1 μg, Table 1 (Part 2)): 0%

SMILES: CC1=C(C(=O)OCCOc2ccccc2)C(c2ccccc2[N+](=O)[O-])c2c(C3CCCC3)nn(C)c2N1 (centres unmarked) [(I), 2-Phenoxyethyl 3-cyclopentyl-1,6-dimethyl-4-(2-nitrophenyl)-4,7-dihydropyrazolo[3,4-b]pyridine-5-carboxylate]
- Duration of Effect ([1]; Table 1 (Part 2)): 6 h
- Maximum decrease in systolic pressure ([1]; Table 1 (Part 2)): 74 mmHg
- Perfusion Flow Change ([2]; 0.1 μg, Table 1 (Part 2)): +43%
- Change of Contractile Tension ([3]; 0.1 μg, Table 1 (Part 2)): 0%

SMILES: COc1ccc(CCOC(=O)C2=C(C)Nc3c(c(C4CCCC4)nn3C)C2c2cccc([N+](=O)[O-])c2)cc1OC (centres unmarked) [(M), 3,4-Dimethoxyphenethyl 3-cyclopentyl-1,6-dimethyl-4-(3-nitrophenyl)-4,7-dihydropyrazolo[3,4-b]pyridine-5-carboxylate]
- Duration of Effect ([1]; Table 1 (Part 2)): 6 h
- Maximum decrease in systolic pressure ([1]; Table 1 (Part 2)): 86 mmHg

SMILES: CC1=C(C(=O)OCCc2ccc(Cl)cc2)C(c2cccc([N+](=O)[O-])c2)c2c(C3CCCC3)nn(C)c2N1 (centres unmarked) [(L), 4-Chlorophenethyl 3-cyclopentyl-1,6-dimethyl-4-(3-nitrophenyl)-4,7-dihydropyrazolo[3,4-b]pyridine-5-carboxylate]
- Duration of Effect ([1]; Table 1 (Part 2)): 6 h
- Maximum decrease in systolic pressure ([1]; Table 1 (Part 2)): 74 mmHg

SMILES: COCCOC(=O)C1=C(C)Nc2c(c(C3CCCCC3)nn2C)C1c1ccccc1[N+](=O)[O-] (centres unmarked) [(D), 2-Methoxyethyl 3-cyclohexyl-1,6-dimethyl-4-(2-nitrophenyl)-4,7-dihydropyrazolo[3,4-b]pyridine-5-carboxylate]
- Duration of Effect ([1]; Table 1 (Part 2)): 6 h
- Maximum decrease in systolic pressure ([1]; Table 1 (Part 2)): 65 mmHg
- Perfusion Flow Change ([2]; 0.1 μg, Table 1 (Part 2)): +32%
- Change of Contractile Tension ([3]; 0.1 μg, Table 1 (Part 2)): 0%

SMILES: COCCOC(=O)C1=C(C)Nc2c(c(CC3CCCC3)nn2C)C1c1ccccc1[N+](=O)[O-] (centres unmarked) [(E), 2-Methoxyethyl 3-cyclopentylmethyl-1,6-dimethyl-4-(2-nitrophenyl)-4,7-dihydropyrazolo[3,4-b]pyridine-5-carboxylate]
- Duration of Effect ([1]; Table 1 (Part 2)): 6 h
- Maximum decrease in systolic pressure ([1]; Table 1 (Part 2)): 26 mmHg
- Perfusion Flow Change ([2]; 0.1 μg, Table 1 (Part 2)): +20%
- Change of Contractile Tension ([3]; 0.1 μg, Table 1 (Part 2)): 0%

SMILES: COCCOC(=O)C1=C(C)Nc2c(c(C3CCCC3)nn2C)C1c1cccc([N+](=O)[O-])c1 (centres unmarked) [(C-2), 2-Methoxyethyl 3-cyclopentyl-1,6-dimethyl-4-(3-nitrophenyl)-4,7-dihydropyrazolo[3,4-b]pyridine-5-carboxylate]
- Duration of Effect ([1]; Table 1 (Part 2)): 6 h
- Maximum decrease in systolic pressure ([1]; Table 1 (Part 2)): 36 mmHg
- Perfusion Flow Change ([2]; 0.1 μg, Table 1 (Part 2)): +15%
- Change of Contractile Tension ([3]; 0.1 μg, Table 1 (Part 2)): 0%

Source: patent publication US4873334A, “4,7-dihydropyrazolo(3,4-b) pyridine derivatives” (Shionogi & Co., Ltd., priority 1982, dated 1989)
